Source: patent US8906909B2 (Curis, Inc., priority 2009, dated 2014)
Read-outs that look alike come from different tables or passages of the source.

Columns and labels:
Assay type in all cases: cell-based
[1] = system: H1993 cells; experiment: Cell proliferation assay Method B, H1993; settings: Homo sapiens, NCI-H1993; NSCLC; Method B; 72 hours; read-out: antiproliferative activity IC50, H1993
Method: (§1) Cancer cell lines were plated at 5,000 to 10,000 per well in 96-well flat bottomed plates with various concentration of compounds. The cells were incubated with compounds for 72 hours in the presence of 0.5% of fetal bovine serum. Growth inhibition was accessed by adenosine triphosphate (ATP) content assay using Promega CellTiter-Glo kit. Promega CellTiter-Glo kit is an ATP monitoring system based on firefly luciferase. Briefly, 16 μl of mammalian cell lysis and substrate solution was added to 84 μl of culture medium per well to lyse the cells and stabilize the ATP. The mixture was shaken and incubated for 30 minutes and subsequently the luminescence was measured.

[2] = system: Sk-Mel-28 cells; experiment: Cell proliferation assay Method B, Sk-Mel-28; settings: Homo sapiens, SK-MEL-28; Melanoma; Method B; 72 hours; read-out: antiproliferative activity IC50, Sk-Mel-28
Method: as §1

[3] = system: THP-1 cells; experiment: Cell proliferation assay Method B, THP-1; settings: Homo sapiens, AML, 72 hours, read-out: antiproliferative activity IC50, THP-1
Method: as §1

[4] = system: A375 cells; experiment: Cell proliferation assay Method B, A375; settings: Homo sapiens, A-375; Melanoma; Method B; 72 hours; read-out: antiproliferative activity IC50, A375
Method: as §1

[5] = system: MDA-MB-361 cells; experiment: Cell proliferation assay Method B, MDA-MB-361; settings: Homo sapiens, Breast, 72 hours, read-out: antiproliferative activity IC50, MDA-MB-361
Method: as §1

[6] = system: RPMI-8226 cells; experiment: Cell proliferation assay Method B, RPMI-8226; settings: Homo sapiens, Multiple Myeloma, Method B, 72 hours, read-out: antiproliferative activity IC50, RPMI-8226
Procedure, shortened: (§2)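 Plate 5,000 to 10,000 cells per well together with compound dilutions. Incubate 72 hours in medium containing 0.5% fetal bovine serum. Add lysis/luciferase substrate reagent, shake, wait 30 minutes, then read luminescence.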

[7] = system: T47D cells; experiment: Cell proliferation assay Method B, T47D; settings: Homo sapiens, Breast, 72 hours, read-out: antiproliferative activity IC50, T47D
Method: as §1

[8] = system: MDA-MB-453 cells; experiment: Cell proliferation assay Method B, MDA-MB-453; settings: Homo sapiens, Breast, 72 hours, read-out: antiproliferative activity IC50, MDA-MB-453
Method: as §1

[9] = system: Daudi cells; experiment: Cell proliferation assay Method B, Daudi; settings: Homo sapiens, NHL, 72 hours, read-out: antiproliferative activity IC50, Daudi
Method: as §1

[10] = system: SKBr3 cells; experiment: Cell proliferation assay Method B, SKBr3; settings: Homo sapiens, SK-BR-3, Breast, 72 hours, read-out: antiproliferative activity IC50, SKBr3
Method: as §1

[11] = system: HCC1500 cells; experiment: Cell proliferation assay Method B, HCC1500; settings: Breast, 72 hours, read-out: antiproliferative activity IC50, HCC1500
Method: as §1

[12] = system: ARH77 cells; experiment: Cell proliferation assay Method B, ARH77; settings: Homo sapiens, ARH-77, Multiple Myeloma, 72 hours, read-out: antiproliferative activity IC50, ARH77
Method: as §1

[13] = system: Pfeiffer cells; experiment: Cell proliferation assay Method B, Pfeiffer; settings: Homo sapiens, NHL, 72 hours, read-out: antiproliferative activity IC50, Pfeiffer
Method: as §1

[14] = system: MDA-MB-231 cells; experiment: Cell proliferation assay Method B, MDA-MB-231; settings: Homo sapiens, Breast, Method B, 72 hours
Method: as §1

[15] = system: BT474 cells; experiment: Cell proliferation assay Method B, BT474; settings: Homo sapiens, BT-474; Breast; Method B; 72 hours; read-out: antiproliferative activity IC50, BT474
Procedure, shortened: as §2

[16] = system: MCF-7 cells; experiment: Cell proliferation assay Method B, MCF-7; settings: Homo sapiens, MCF7, Breast, 72 hours, read-out: antiproliferative activity IC50, MCF-7
Method: as §1

[17] = system: U937 cells; experiment: Cell proliferation assay Method B, U937; settings: Homo sapiens, U-937, AML, 72 hours, read-out: antiproliferative activity IC50, U937
Method: as §1

[18] = system: MOLT-4 cells; experiment: Cell proliferation assay Method B, MOLT-4; settings: Homo sapiens, ALL, 72 hours, read-out: antiproliferative activity IC50, MOLT-4
Method: as §1

[19] = system: HCC1806 cells; experiment: Cell proliferation assay Method B, HCC1806; settings: Homo sapiens, Breast, 72 hours, read-out: antiproliferative activity IC50, HCC1806
Method: as §1

[20] = system: ZR-75-1 cells; experiment: Cell proliferation assay Method B, ZR-75-1; settings: Homo sapiens, Breast, 72 hours, read-out: antiproliferative activity IC50, ZR-75-1
Method: as §1

[21] = system: U87MG cells; experiment: Cell proliferation assay Method B, U87MG; settings: Homo sapiens, U-87 MG; Glioblastoma; Method B; 72 hours; read-out: antiproliferative activity IC50, U87MG
Method: as §1

[22] = system: UACC-893 cells; experiment: Cell proliferation assay Method B, UACC-893; settings: Homo sapiens, Breast, 72 hours, read-out: antiproliferative activity IC50, UACC-893
Method: as §1

[23] = system: MDA-MB-436 cells; experiment: Cell proliferation assay Method B, MDA-MB-436; settings: Homo sapiens, Breast, Method B, 72 hours, read-out: antiproliferative activity IC50, MDA-MB-436
Method: as §1

[24] = system: L1210 cells; experiment: Cell proliferation assay Method B, L1210; settings: Mouse LL, 72 hours, read-out: antiproliferative activity IC50, L1210
Method: as §1

[25] = system: H1975 cells; experiment: Cell proliferation assay Method B, H1975; settings: Homo sapiens, NCI-H1975; NSCLC; Method B; 72 hours; read-out: antiproliferative activity IC50, H1975
Method: as §1

[26] = system: HCC1937 cells; experiment: Cell proliferation assay Method B, HCC1937; settings: Homo sapiens, Breast, Method B, 72 hours, read-out: antiproliferative activity IC50, HCC1937
Method: as §1

[27] = system: MEG-01 cells; experiment: Cell proliferation assay Method B, MEG-01; settings: Homo sapiens, CML, 72 hours, read-out: antiproliferative activity IC50, MEG-01
Method: as §1

[28] = system: Raji cells; experiment: Cell proliferation assay Method B, Raji; settings: Homo sapiens, NHL, 72 hours, read-out: antiproliferative activity IC50, Raji
Method: as §1

[29] = system: Ca127 cells; experiment: Cell proliferation assay Method B, Ca127; settings: HNC; Method B; 72 hours; read-out: antiproliferative activity IC50, Ca127
Method: as §1

[30] = read-out: antiproliferative activity IC50, MDA-MB-231 (second listing, r32)

Structure (SMILES) | IC50 [1] | IC50 [2] | IC50 [3] | IC50 [4] | IC50 [5] | IC50 [6] | IC50 [7] | IC50 [8] | IC50 [9] | IC50 [10] | IC50 [11] | IC50 [12] | IC50 [13] | IC50 [14, 30] | IC50 [15] | IC50 [16] | IC50 [17] | IC50 [18] | IC50 [19] | IC50 [20] | also measured
CN(Cc1cc2nc(-c3ccc(N)cc3)nc(N3CCOCC3)c2s1)c1ncc(C(=O)NO)cn1 [Compound 150, 2-(((2-(4-aminophenyl)-4-morpholinothieno[3,2-d]pyrimidin-6-yl)methyl)(methyl)amino)-N-hydroxypyrimidine-5-carboxamide] | < 10 nM | < 10 nM | < 10 nM | < 10 nM | < 10 nM | < 10 nM | < 10 nM | < 10 nM | < 10 nM | 10 to 100 nM | < 10 nM | < 10 nM | < 10 nM | 10 to 100 nM | < 10 nM | < 10 nM | < 10 nM | < 10 nM | 10 to 100 nM | 10 to 100 nM | IC50 [21]: < 10 nM; IC50 [22]: < 10 nM; IC50 [23]: < 10 nM; IC50 [24]: < 10 nM; IC50 [25]: < 10 nM; IC50 [26]: < 10 nM; IC50 [27]: 10 to 100 nM; IC50 [28]: < 10 nM; IC50 [29]: < 10 nM
CS(=O)(=O)N1CCN(Cc2cc3nc(-c4cccc5[nH]ncc45)nc(N4CCOCC4)c3s2)CC1 [GDC-0941, reference compound] | 1000 to 10000 nM | 10 to 100 nM | 1000 to 10000 nM | 1000 to 10000 nM | 100 to 1000 nM | > 10000 nM | > 10000 nM | 100 to 1000 nM | > 10000 nM | > 10000 nM | > 10000 nM | > 10000 nM | 100 to 1000 nM | > 10000 nM | 100 to 1000 nM | 100 to 1000 nM | 1000 to 10000 nM | 100 to 1000 nM | > 10000 nM | 100 to 1000 nM | IC50 ([14]; read-out: antiproliferative activity IC50, MDA-MB-231 (first listing, r25)): > 10000 nM; IC50 [21]: 100 to 1000 nM; IC50 [22]: 1000 to 10000 nM; IC50 [23]: 1000 to 10000 nM; IC50 [24]: > 10000 nM; IC50 [25]: 100 to 1000 nM; IC50 [26]: 100 to 1000 nM; IC50 [27]: > 10000 nM; IC50 [28]: > 10000 nM; IC50 [29]: 100 to 1000 nM
